# Assay results published in patent publication US5405857A, “3-substituted 1,2,3,4,-oxatriazole-5-imine compounds, a process for the preparation thereof and a pharmaceutical preparation containing said compounds” (A/S GEA Farmaceutisk Fabrik, priority 1991, dated 1995).
# Entries after “also recorded” stand apart in the source; their conditions may differ. Counter-ions that a name gives are not always drawn.
# Assays:
# [1] = tested on: male rats; assay: Maximum tolerable dose (MTD) study p.o.; as to Clinical observations: key: N.R.: nothing remarkable; as to Increase in weight: key: N.R.: nothing remarkable; format: in vivo, rat; details: p.o.
# Protocol: (§1) Two tests were carried out on male rats, namely a determination of the "maximum tolerable dose" (MTD) and a test using multiple peroral doses. In addition, a LD50 test was carried out intravenously on mice.
# (§2) In a MTD-test 10 animals were administered a dose of the substance once a day for a week, during which period the clinical and hematological parameters were recorded. When no signs of side effects appeared, the dose was increased in the following weeks until side effects appeared. The hemotological parameters measured were the following: the number of red and white blood cells, the number of blood platelets, the hemoglobin percentage, the hematocrit, and for the red blood cells also the average cell volume, the average cell hemoglobin content, and the average cell hemoglobin concentration. Furthermore, a differential count of the white blood cells was made.
# [2] = Maximum tolerable dose (MTD) study p.o.; as to Clinical observations: key: N.R.: nothing remarkable; as to Increase in weight: key: N.R.: nothing remarkable; format: in vivo, rat; details: rat, in vivo, po; peroral, rats
# Protocol: as §1, §2
# [3] = tested on: male rats; assay: Maximum tolerable dose (MTD) study i.p.; format: in vivo, rat; details: i.p.
# Protocol: as §1, §2
# [4] = Maximum tolerable dose (MTD) study i.p.; format: in vivo, rat; details: rat, in vivo, ip; intraperitoneal, rats
# Protocol: as §1, §2
# [5] = tested on: blood platelets; assay: Inhibition of blood platelet aggregation (aggregometer, ADP); format: cell-based, human (healthy testees); details: Platelet, 0.05 h; human PRP, ADP 2 to 4 μM, 3 min incubation, 37° C.; read-out: IC50 (Inhibition of blood platelet aggregation)
# Protocol: Compounds according to the invention were tested for their inhibition of clumping together (aggregation) of blood platelets (thrombocytes), which is the first phase of the formation of blood clots (thrombi). Such an inhibition may prevent the formation of blood clots and inhibit the development of new thrombi after a diagnosed thrombus.
# Citrate stabilized ( 0.38% of sodium citrate, final concentration) venous blood from healthy testees is used, who have not used medicine for at least 8 days. Slight centrifugation (160×g for 10 minutes) results in PRP (blood plasma rich in platelets) which is pipetted. PPP (blood plasma poor in platelets) is obtained by an intense centrifugation (3000×g for 10 minutes) of the remaining blood. The light transmission is measured by the aggregometer (CHRONOLOG). PRP allows nearly no light transmitaaion, while PPP allows complete transmission of light. The PRP is placed in the aggregometer at 37° C. while being stirred by a magnet. Addition of a pro-aggregating substance causes the PRP to aggregate gradually and an increasing light transmission takes place at the same time. At complete aggregation a light transmission corresponding to PPP is obtained. Adnosine diphosphate (ADP) is used as pro-aggregating substance, said substance representing a basic biochemical mechanism for aggregation of blood platelets. The test substances are incubated for 3 minutes in PRP placed in the aggregometer at 37° C. during magnetic stirring. A predetermined positively aggregating dosage of adenosine diphosphate (ADP) (2 to 4 μM) is then added. […] A so-called IC50 -value (that is the concentration inhibiting the aggregation by 50% relative to the control aggregation) is calculated for each test substance by linear regression analysis (log concentration μM as constant ad abscissa and % inhibition as variable ad ordinate). The following known reference substances have been used: nitroglycerine (GTN), sodium nitroprusside (NNP) and SIN-1 (the active metabolite of molsidomine).
# [6] = 10 mg/kg once a day for a week, relative to control
# [7] = 20 mg/kg once a day for a week, relative to control
# [8] = 40 mg/kg once a day for a week, relative to control
# [9] = 20 mg/kg once a day for a week, relative to control, hydrochloride, 20 mg/kg
smiles,measurement,setting,value
"Cc1c(Cl)cccc1-[n+]1noc([NH-])n1 [Example 1, 3-(3-chloro-2-methylphenyl)-1,2,3,4-oxatriazole-5-imine hydrochloride]",Clinical observations,[1]; [6],N.R.
same,Hematological parameters,[1]; [6],N.R.
same,Increase in weight,[1]; [6],N.R.
same,Clinical observations,[1]; [7],N.R.
same,Hematological parameters,[1]; [7],N.R.
same,Increase in weight,[1]; [7],N.R.
same,Clinical observations,[1]; [8],N.R.
same,Hematological parameters: hemoglobin percentage (HGB),[1]; [8],reduced HGB
same,Hematological parameters: red blood cells (RBC),[1]; [8],reduced RBC
same,Increase in weight,[1]; [8],N.R.
same,Hematological parameters: white blood cells (WBC),"[1]; 40 mg/kg once a day for a week, relative to control, hydrochloride, 40 mg/kg",increased WBC; also recorded: increased content of white blood cells
same,Signs of anemia,"[1]; 40 mg/kg, after one week",signs of anemia
same,MTD,[2],40 mg/kg
same,Clinical observations,[3]; [6],N.R.
same,Hematological parameters,[3]; [6],N:R
same,Increase in weight,[3]; [6],N.R.
same,Increase in weight,[3]; [7],reduced
same,Clinical observations,[3]; [9],"a passing CNS effect, where the animals a few minutes after the administration seemed nervous and hyperactive"
same,Hematological parameters: neutrophilic granulocytes with toxic granulation,[3]; [9],increased number of neutrophilic granulocytes and a toxic granulation in some cells
same,Tolerability (in words),"[3]; rats, up to 20 mg/kg",tolerated with only minor side effects
same,MTD,[4],~20 mg/kg
same,IC50,[5],0.32 µM
